Test results from patent US12338237B2, “Derivatives having 1,2,3,4-tetrahydronaphthalene moiety or pharmaceutically acceptable salt thereof and pharmaceutical compositions comprising the same” (YUHAN CORPORATION, priority 2019, dated 2025).
Where two headings read alike, the source gives them in different places.

Key:
GM1 production = test: cells; format: cell-based
[1] = target: glucosylceramide synthase (GCS) (Homo sapiens (Human), UniProt Q16739); test: Evaluation of inhibitory activities against GCS (enzyme reaction with A549 cell lysate, NBD C6-ceramide, HPLC fluorescence); format: biochemical; details: GCS activity in A549 cell lysate, 37° C. for 90 minutes
Outline: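 Lysate of A549 cells in 50 mM HEPES pH 7.3 incubated with test compound and NBD C6-ceramide at 37 °C for 90 min; lipids extracted with chloroform/methanol and GlcCer and ceramide peaks quantified by HPLC fluorescence. Activity from GlcCer area fraction, normalised between DMSO and ibiglustat controls.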

Sequence of glucosylceramide synthase (GCS) (Q16739 whole entry, looked up): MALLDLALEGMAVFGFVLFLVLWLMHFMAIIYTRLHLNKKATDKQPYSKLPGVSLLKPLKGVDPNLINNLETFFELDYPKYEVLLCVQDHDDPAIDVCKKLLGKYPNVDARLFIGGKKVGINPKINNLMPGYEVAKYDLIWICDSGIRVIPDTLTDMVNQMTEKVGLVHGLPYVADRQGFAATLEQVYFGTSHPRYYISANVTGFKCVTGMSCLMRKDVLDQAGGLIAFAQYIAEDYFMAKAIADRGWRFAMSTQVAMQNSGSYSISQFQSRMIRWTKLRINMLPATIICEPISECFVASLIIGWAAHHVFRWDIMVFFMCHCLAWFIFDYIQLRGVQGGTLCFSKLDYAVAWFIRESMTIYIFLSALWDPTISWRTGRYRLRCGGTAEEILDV

Compound	IC50 (GM1 production; Homo sapiens, Jurkat, 72 h) [nM]	IC50 [1] [nM]	IC50 (GM1 production; read-out: IC50) [nM]
CC1(C)CCc2cc(-c3cccc(C(F)F)c3)ccc2C1NC(=O)O[C@@H]1CN2CCC1CC2 (stereo partly drawn) [Example 130, (S)-quinuclidin-3-yl (6-(3-(difluoromethyl)phenyl)-2,2-dimethyl-1,2,3,4-tetrahydronaphthalen-1-yl)carbamate]	1.3	1.24	–
CN(C)c1cccc(-c2ccc3c(c2)CCC(C)(C)C3NC(=O)O[C@@H]2CN3CCC2CC3)c1 (stereo partly drawn) [Example 131, (S)-quinuclidin-3-yl (6-(3-(dimethylamino)phenyl)-2,2-dimethyl-1,2,3,4-tetrahydronaphthalen-1-yl)carbamate]	2.3	1.49	–
CC(C)Oc1cccc(-c2ccc3c(c2)CCC(C)(C)C3NC(=O)O[C@@H]2CN3CCC2CC3)c1 (stereo partly drawn) [Example 132, (S)-quinuclidin-3-yl (6-(3-isopropoxyphenyl)-2,2-dimethyl-1,2,3,4-tetrahydronaphthalen-1-yl)carbamate]	2	1.16	–
COc1cccc(-c2ccc3c(c2)CCC(C)(C)C3NC(=O)O[C@@H]2CN3CCC2CC3)c1OC (stereo partly drawn) [Example 133, (S)-quinuclidin-3-yl (6-(2,3-dimethoxyphenyl)-2,2-dimethyl-1,2,3,4-tetrahydronaphthalen-1-yl)carbamate]	1	1.05	–
COc1ccc(-c2ccc3c(c2)CCC(C)(C)C3NC(=O)O[C@@H]2CN3CCC2CC3)c(OC)c1 (stereo partly drawn) [Example 134, (S)-quinuclidin-3-yl (6-(2,4-dimethoxyphenyl)-2,2-dimethyl-1,2,3,4-tetrahydronaphthalen-1-yl)carbamate]	6.6	2.95	–
COc1ccc(OC)c(-c2ccc3c(c2)CCC(C)(C)C3NC(=O)O[C@@H]2CN3CCC2CC3)c1 (stereo partly drawn) [Example 135, (S)-quinuclidin-3-yl (6-(2,5-dimethoxyphenyl)-2,2-dimethyl-1,2,3,4-tetrahydronaphthalen-1-yl)carbamate]	8.3	2.81	–
COc1cccc(OC)c1-c1ccc2c(c1)CCC(C)(C)C2NC(=O)O[C@@H]1CN2CCC1CC2 (stereo partly drawn) [Example 136, (S)-quinuclidin-3-yl (6-(2,6-dimethoxyphenyl)-2,2-dimethyl-1,2,3,4-tetrahydronaphthalen-1-yl)carbamate]	21.2	9.22	–
COc1ccc(-c2ccc3c(c2)CCC(C)(C)C3NC(=O)O[C@@H]2CN3CCC2CC3)cc1OC (stereo partly drawn) [Example 137, (S)-quinuclidin-3-yl (6-(3,4-dimethoxyphenyl)-2,2-dimethyl-1,2,3,4-tetrahydronaphthalen-1-yl)carbamate]	8.4	2.14	–
COc1cc(OC)cc(-c2ccc3c(c2)CCC(C)(C)C3NC(=O)O[C@@H]2CN3CCC2CC3)c1 (stereo partly drawn) [Example 138, (S)-quinuclidin-3-yl (6-(3,5-dimethoxyphenyl)-2,2-dimethyl-1,2,3,4-tetrahydronaphthalen-1-yl)carbamate]	3.8	1.19	–
COc1ccc(-c2ccc3c(c2)CCC(C)(C)C3NC(=O)O[C@@H]2CN3CCC2CC3)cc1Cl (stereo partly drawn) [Example 139, (S)-quinuclidin-3-yl (6-(3-chloro-4-methoxyphenyl)-2,2-dimethyl-1,2,3,4-tetrahydronaphthalen-1-yl)carbamate]	8.8	4.78	–
CCOc1ccc(-c2ccc3c(c2)CCC(C)(C)C3NC(=O)O[C@@H]2CN3CCC2CC3)cc1Cl (stereo partly drawn) [Example 140, (S)-quinuclidin-3-yl (6-(3-chloro-4-ethoxyphenyl)-2,2-dimethyl-1,2,3,4-tetrahydronaphthalen-1-yl)carbamate]	1.4	1.49	–
CCCOc1ccc(-c2ccc3c(c2)CCC(C)(C)C3NC(=O)O[C@@H]2CN3CCC2CC3)cc1Cl (stereo partly drawn) [Example 141, (S)-quinuclidin-3-yl (6-(3-chloro-4-propoxyphenyl)-2,2-dimethyl-1,2,3,4-tetrahydronaphthalen-1-yl)carbamate]	1.1	1.51	–
CC(C)Oc1ccc(-c2ccc3c(c2)CCC(C)(C)C3NC(=O)O[C@@H]2CN3CCC2CC3)cc1F (stereo partly drawn) [Example 142, (S)-quinuclidin-3-yl (6-(3-fluoro-4-isopropoxyphenyl)-2,2-dimethyl-1,2,3,4-tetrahydronaphthalen-1-yl)carbamate]	3.4	1.11	–
CCCCOc1ccc(-c2ccc3c(c2)CCC(C)(C)C3NC(=O)O[C@@H]2CN3CCC2CC3)cc1Cl (stereo partly drawn) [Example 143, (S)-quinuclidin-3-yl (6-(4-butoxy-3-chlorophenyl)-2,2-dimethyl-1,2,3,4-tetrahydronaphthalen-1-yl)carbamate]	0.5	1.44	–
CCOc1ccc(-c2ccc3c(c2)CCC(C)(C)C3NC(=O)O[C@@H]2CN3CCC2CC3)cc1F (stereo partly drawn) [Example 144, (S)-quinuclidin-3-yl (6-(4-ethoxy-3-fluorophenyl)-2,2-dimethyl-1,2,3,4-tetrahydronaphthalen-1-yl)carbamate]	1.6	1.39	–
CCCOc1ccc(-c2ccc3c(c2)CCC(C)(C)C3NC(=O)O[C@@H]2CN3CCC2CC3)cc1F (stereo partly drawn) [Example 145, (S)-quinuclidin-3-yl (6-(3-fluoro-4-propoxyphenyl)-2,2-dimethyl-1,2,3,4-tetrahydronaphthalen-1-yl)carbamate]	0.7	0.87	–
CCCOc1c(C)cc(-c2ccc3c(c2)CCC(C)(C)C3NC(=O)O[C@@H]2CN3CCC2CC3)cc1C (stereo partly drawn) [Example 146, (S)-quinuclidin-3-yl (6-(3,5-dimethyl-4-propoxyphenyl)-2,2-dimethyl-1,2,3,4-tetrahydronaphthalen-1-yl) carbamate]	–	1.8	0.8
CCCCOc1c(C)cc(-c2ccc3c(c2)CCC(C)(C)C3NC(=O)O[C@@H]2CN3CCC2CC3)cc1C (stereo partly drawn) [Example 147, (S)-quinuclidin-3-yl (6-(4-butoxy-3,5-dimethylphenyl)-2,2-dimethyl-1,2,3,4-tetrahydronaphthalen-1-yl)carbamate]	0.1	1	–
COc1ccc(-c2ccc3c(c2)CCC(C)(C)C3NC(=O)O[C@@H]2CN3CCC2CC3)c(F)c1 (stereo partly drawn) [Example 148, (S)-quinuclidin-3-yl (6-(2-fluoro-4-methoxyphenyl)-2,2-dimethyl-1,2,3,4-tetrahydronaphthalen-1-yl)carbamate]	4.6	3.21	–
CC(C)Oc1ccc(-c2ccc3c(c2)CCC(C)(C)C3NC(=O)O[C@@H]2CN3CCC2CC3)cc1Cl (stereo partly drawn) [Example 149, (S)-quinuclidin-3-yl (6-(3-chloro-4-isopropoxyphenyl)-2,2-dimethyl-1,2,3,4-tetrahydronaphthalen-1-yl)carbamate]	3.9	3.5	–
CC(=O)c1sccc1-c1ccc2c(c1)CCC(C)(C)C2NC(=O)O[C@@H]1CN2CCC1CC2 (stereo partly drawn) [Example 150, (S)-quinuclidin-3-yl (6-(2-acetylthiophen-3-yl)-2,2-dimethyl-1,2,3,4-tetrahydronaphthalen-1-yl)carbamate]	17.1	8.7	–
CC1(C)CCc2ccc(-c3ccc(F)cc3)cc2C1NC(=O)O[C@@H]1CN2CCC1CC2 (stereo partly drawn) [Example 151, (S)-quinuclidin-3-yl (7-(4-fluorophenyl)-2,2-dimethyl-1,2,3,4-tetrahydronaphthalen-1-yl)carbamate]	33.4	7.27	–
CC1(C)CCc2ccc(-c3ccc(Cl)cc3)cc2C1NC(=O)O[C@@H]1CN2CCC1CC2 (stereo partly drawn) [Example 152, (S)-quinuclidin-3-yl (7-(4-chlorophenyl)-2,2-dimethyl-1,2,3,4-tetrahydronaphthalen-1-yl)carbamate]	25.9	5.72	–
CC1(C)CCc2ccc(-c3ccc(C(F)(F)F)cc3)cc2C1NC(=O)O[C@@H]1CN2CCC1CC2 (stereo partly drawn) [Example 153, (S)-quinuclidin-3-yl (2,2-dimethyl-7-(4-(trifluoromethyl)phenyl)-1,2,3,4-tetrahydronaphthalen-1-yl)carbamate]	5.54	4.43	–
CC1(C)CCc2ccc(-c3ccc(OC(F)(F)F)cc3)cc2C1NC(=O)O[C@@H]1CN2CCC1CC2 (stereo partly drawn) [Example 154, (S)-quinuclidin-3-yl (2,2-dimethyl-7-(4-(trifluoromethoxy)phenyl)-1,2,3,4-tetrahydronaphthalen-1-yl)carbamate]	17.7	8.4	–
CC1(C)CCc2ccc(-c3cccc(F)c3)cc2C1NC(=O)O[C@@H]1CN2CCC1CC2 (stereo partly drawn) [Example 155, (S)-quinuclidin-3-yl (7-(3-fluorophenyl)-2,2-dimethyl-1,2,3,4-tetrahydronaphthalen-1-yl)carbamate]	108	21	–
CC1(C)CCc2ccc(-c3cccc(Cl)c3)cc2C1NC(=O)O[C@@H]1CN2CCC1CC2 (stereo partly drawn) [Example 156, (S)-quinuclidin-3-yl (7-(3-chlorophenyl)-2,2-dimethyl-1,2,3,4-tetrahydronaphthalen-1-yl)carbamate]	132	19.6	–
CC1(C)CCc2ccc(-c3cccc(C(F)(F)F)c3)cc2C1NC(=O)O[C@@H]1CN2CCC1CC2 (stereo partly drawn) [Example 157, (S)-quinuclidin-3-yl (2,2-dimethyl-7-(3-(trifluoromethyl)phenyl)-1,2,3,4-tetrahydronaphthalen-1-yl)carbamate]	120	32.2	–
CC1(C)CCc2ccc(-c3cccc(OC(F)(F)F)c3)cc2C1NC(=O)O[C@@H]1CN2CCC1CC2 (stereo partly drawn) [Example 158, (S)-quinuclidin-3-yl (2,2-dimethyl-7-(3-(trifluoromethoxy)phenyl)-1,2,3,4-tetrahydronaphthalen-1-yl)carbamate]	249	34.2	–
CC1(C)CCc2ccc(-c3ccccc3F)cc2C1NC(=O)O[C@@H]1CN2CCC1CC2 (stereo partly drawn) [Example 159, (S)-quinuclidin-3-yl (7-(2-fluorophenyl)-2,2-dimethyl-1,2,3,4-tetrahydronaphthalen-1-yl)carbamate]	49.8	10.9	–
